Data taken from PubChem BioAssay (NCI).
“And” between values parts separate entries of the source, which are not always exact repeats. Equal values may be shown once.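 Cells were grown in 96-well plates and exposed to each compound for 48 hours at five concentrations; endpoints were interpolated linearly between bracketing concentrations, or set to the highest concentration if not reached. Abbreviation: GI50, concentration required for 50% inhibition of growth. TGI is the concentration that stops growth completely.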

Assays:
Test in all cases: NCI-60 cell line screen, 48 h
OVCAR-3 ovarian = tested on: OVCAR-3 ovarian
CAKI-1 renal = tested on: CAKI-1 renal
OVCAR-4 ovarian = tested on: OVCAR-4 ovarian
A498 renal = tested on: A498 renal
HCT-116 colon = tested on: HCT-116 colon
CCRF-CEM leukemia = tested on: CCRF-CEM leukemia
U251 CNS = tested on: U251 CNS
NCI-H522 lung = tested on: NCI-H522 lung
SR leukemia = tested on: SR leukemia
DU-145 prostate = tested on: DU-145 prostate

Compound | TGI (OVCAR-3 ovarian) | TGI (CAKI-1 renal) | TGI (OVCAR-4 ovarian) | TGI (A498 renal) | TGI (HCT-116 colon) | TGI (CCRF-CEM leukemia) | TGI (U251 CNS) | TGI (NCI-H522 lung) | TGI (SR leukemia) | GI50 (DU-145 prostate) | TGI (DU-145 prostate) | GI50 (OVCAR-3 ovarian) | GI50 (CAKI-1 renal) | GI50 (OVCAR-4 ovarian) | GI50 (A498 renal) | GI50 (HCT-116 colon) | GI50 (CCRF-CEM leukemia) | GI50 (U251 CNS) | GI50 (NCI-H522 lung) | GI50 (SR leukemia)
Cc1c(C(=O)CC(=O)C(=O)Nc2ccc(Cl)c(Cl)c2)[n+](=O)c2ccccc2n1[O-] | 7.91 µM | > 100 µM | 34.7 µM | > 100 µM | 35.4 µM | 43 µM | 72.3 µM | 37 µM | – | – | – | – | – | – | – | – | – | – | – | –
ClC1CCC2OOC1O2 (configuration not stated) | > 100 µM | > 100 µM | > 100 µM | > 100 µM | > 100 µM | > 100 µM | > 100 µM | > 100 µM | > 100 µM | – | – | – | – | – | – | – | – | – | – | –
O=c1c2ccccc2nc(-c2ccc(Br)cc2)n1NC1OC(CO)C(O)C(O)C1O (configuration not stated) | > 100 µM | > 100 µM | > 100 µM | > 100 µM | > 100 µM | > 100 µM | > 100 µM | > 100 µM | – | – | – | – | – | – | – | – | – | – | – | –
CCC1=C(C)/C(=C/c2[nH]c(CBr)c(CC)c2C)N=C1CBr | 30.1 µM | 25.8 µM | > 100 µM | – | – | 9.55 µM | 24.6 µM | 9.67 µM | – | – | – | – | – | – | – | – | – | – | – | –
Cc1c2c(nn1C(=O)c1nn(-c3ccc(Cl)cc3)cc1O)-c1ccccc1CC2 | 1.55 µM | 6.85 µM | > 100 µM | 0.0612 µM | > 100 µM | > 49.1 µM | > 100 µM | 0.717 µM | – | 0.0497 µM | > 100 µM | 0.185 µM | 0.0971 µM | 0.246 µM | 0.0181 µM | 0.0339 µM | 0.0477 µM | 0.0292 µM | 0.0376 µM | –
COc1cc2ccc3c4c(OC)cc(OC)c(OC)c4c(=O)n(C)c3c2cc1OC | 7.02 µM and > 40.5 µM | 16.7 µM and > 44.2 µM | 8.32 µM and > 45.8 µM | 16.7 µM | – | 2.04 µM | 3.71 µM and 10.6 µM | 10.9 µM and > 32.8 µM | 2.97 µM | – | – | 0.755 µM | 6.83 µM | 2.67 µM | – | 0.455 µM | 0.486 µM | 0.299 µM | 0.745 µM | –
COC(=O)/C(C#N)=C1\CCC(O)N1C (configuration not stated) | > 100 µM | > 100 µM | > 100 µM | – | > 100 µM | > 100 µM | > 100 µM | > 100 µM | – | – | – | – | – | – | – | – | – | – | – | –
COC(=O)C(C(=O)C(=O)NC1=C(Cl)C(=O)c2ccccc2C1=O)c1csc(-n2nc(-c3ccccc3)cc2-c2ccccc2)n1 (configuration not stated) | > 100 µM | > 100 µM | > 100 µM | > 100 µM | > 100 µM | > 100 µM | > 100 µM | > 100 µM | > 100 µM | – | – | – | – | – | – | – | – | – | – | –
COc1ccc(C(c2ccc(C(C)C)cc(=O)c2O)c2ccc3cccnc3c2O)cc1 (configuration not stated) | 4.95 µM | 5.15 µM | 23.9 µM | – | 12.8 µM | > 100 µM | 3.5 µM | 10.9 µM | 15.9 µM | – | – | – | – | – | – | – | – | – | – | –
CCc1ccccc1NC(=O)CCc1n[nH]c(=S)o1 | > 100 µM | > 100 µM | > 100 µM | > 100 µM | 42.5 µM | > 100 µM | > 100 µM | – | – | – | – | – | – | – | – | – | – | – | – | –
CC(=O)OCc1cc(OC(C)=O)cnc1COC(C)=O | > 100 µM | > 100 µM | > 100 µM | > 100 µM | > 100 µM | > 100 µM | > 100 µM | > 100 µM | > 100 µM | – | – | – | – | – | – | – | – | – | – | –
COC(=O)C1=CN=C(C(=O)OC)NN1 | > 100 µM | > 100 µM | > 100 µM | – | > 100 µM | > 100 µM | > 100 µM | > 100 µM | > 100 µM | – | – | – | – | – | – | – | – | – | – | –
Cc1ccc(S(=O)(=O)/N=c2\ssc(Nc3ccccc3)c2Cl)cc1 | 20.2 µM | 21.1 µM | > 50 µM | – | – | – | 21.3 µM | > 50 µM | 25.1 µM | 7.74 µM | 27.6 µM | 6.08 µM | 7.6 µM | 33.6 µM | – | – | – | 8.92 µM | 19.8 µM | 9.06 µM
CC(=O)NC(CCCCNC(=O)N(CCCl)N=O)C(=O)NCc1ccccc1 (configuration not stated) | > 100 µM | > 100 µM | > 100 µM | – | > 100 µM | > 100 µM | > 100 µM | > 100 µM | > 100 µM | – | – | – | – | – | – | – | – | – | – | –
Cc1oc2c(C)c(O)c3c(c2c1C1(C)OCCO1)C(=O)C=C(Cl)C3=O | > 100 µM | > 100 µM | > 100 µM | > 100 µM | > 100 µM | > 100 µM | > 100 µM | > 100 µM | > 100 µM | – | – | – | – | – | – | – | – | – | – | –
N.N.N.N.N.N.[I-].[Os] | > 100 µM | > 100 µM | > 100 µM | > 100 µM | > 100 µM | > 100 µM | > 100 µM | > 100 µM | – | – | – | > 100 µM | > 100 µM | > 100 µM | > 100 µM | > 100 µM | > 100 µM | > 100 µM | > 100 µM | –
Nc1ncnc2c1nc(-c1ccccc1)n2C1OC(CO)C(O)C1O (configuration not stated) | > 100 µM | > 100 µM | > 100 µM | > 100 µM | > 100 µM | – | > 100 µM | > 100 µM | > 100 µM | – | > 100 µM | – | – | – | – | – | – | – | – | –
CN(C)C(=O)/N=c1\ss/c(=N\C(=S)N(C)C)n1-c1ccccc1 | > 65.6 µM | > 100 µM | 60.2 µM | > 100 µM | 47.1 µM | > 48.8 µM | > 100 µM | 8.12 µM | > 100 µM | – | – | – | 2.76 µM | – | – | – | – | – | – | –
O=C(Nc1n[nH]c2nc(-c3ccco3)ccc12)C1CC1 | > 25 µM | > 25 µM | > 25 µM | > 25 µM | > 25 µM | > 25 µM | > 25 µM | > 25 µM | – | > 25 µM | > 25 µM | > 25 µM | > 25 µM | > 25 µM | > 25 µM | > 25 µM | > 25 µM | > 25 µM | > 25 µM | –
C[C@@H](CO)OCOCc1ccccc1 | > 100 µM | > 100 µM | > 100 µM | > 100 µM | > 100 µM | > 100 µM | > 100 µM | > 100 µM | – | – | – | – | – | – | – | – | – | – | – | –
C/C=C/C=N/N(C(=O)c1cc([N+](=O)[O-])cc([N+](=O)[O-])c1)C1=NC(c2ccccc2)C(c2ccccc2)=NN1 (configuration not stated) | 72 µM | > 100 µM | > 100 µM | > 100 µM | 84.8 µM | > 100 µM | > 100 µM | 57 µM | – | – | – | – | – | – | – | – | – | – | – | –
